Assay results taken from patent publication US8168628B2, “Conjugated psychotropic drugs and uses thereof” (Ramot at Tel-Aviv University Ltd., priority 2001, dated 2012).
Structures can show the parent of a compound that is named as a salt. Where two headings read alike, the source gives them in different places.

What was measured:
[1] = tested on: rats; assay: Catalepsy in rats, “piano” test, oral administration; assay type: in vivo, rat
Description: To this end, the induced catalepsy, the prolactin blood levels and the animal behavior were measured as described hereinabove, following oral administration of either AN 168 or perphenazine alone to rats. Animals, divided 5 per cage, were treated by oral administration of perphenazine or AN-168 dissolved in 1% lactic acid. Control animals received vehicle (lactic acid) only.
The catalepsy induced by oral administration of various concentrations of AN 168 and perphenazine was measured by the “wall” test and the “piano” test described hereinabove. The time course of catalepsy was measured 4-24 hours following oral administration of 2.5, 5, 10 and 20 mg/kg perphenazine and respective equimolar doses of 3.5, 7, 14 and 28 mg/kg AN-168. The total catalepsy represents the sum of average catalepsy per treated group during the 4-24 hours of follow-up.

[2] = tested on: mice; assay: Catalepsy in mice (bar between two cages); assay type: in vivo, mouse
Description: Young adult male and female mice were purchased from Harlan, Israel. The animals were housed for 4-7 days under controlled conditions prior to experimentation. Experiments were conducted in a double blind procedure. In each experiment various treatment groups (about 10 animals each) were tested.
Catalepsy in mice: The appearance of stereotypic cataleptic behavior in mice following the neuroleptic treatment was measured in two different sets of experiments.
The catalepsy was determined using a system of two cages and a bar therebetween. The mouse was hung in the middle of the bar, and the percentage of animals reaching the target within 2 minutes was monitored 1 hour, 2 hours and 3 hours following the treatment.
The catalepsy was determined using the system described hereinabove. The mouse was hung in the middle of the bar, and the time it took the animal to reach the target was measured.

[3] = tested on: B16 MDR; assay: Proliferation test, B16 MDR cells; assay type: cell-based, murine; conditions: Mus musculus; linear regression of survival percentage
Description: (§1) Cell lines: Human prostate carcinoma (PC-3), human colon carcinoma (HT-29), murine melanoma (B-16) and its drug resistant subclone (B-16 MDR), mouse fibroblasts (3T3), myeloid leukemia (HL 60) and its drug resistant subclone (HL 60 MX2), endometrium cell line (MES SA) and its drug resistant subclone (MES DX5), jurkat T lymphoma and monocyte leukemia (U-937), were used in this study.
(§2) Proliferation of cancer and normal cells: Proliferation was measured by neutral red assay or by a fluorometric assay quantitating DNA content. In the neutral red assay, the neutral red is absorbed by lysosomes, thus causing coloring of living cells. Quantitative analysis is performed by colorimetric assay (ELISA reader at 550 nm). In the fluorometric assay, alamar blue is used as a redox indicator. Alamar blue fluorescence was measured at an excitation wavelength of 544 nm and an emission wavelength of […] (FLUOstar BMG Lab Technologies, Offenburg, Germany).
(§3) The cells were sub-cultured and the tested compounds were added thereto in increasing concentrations. The IC50 values were determined by linear regression of the survival percentage of the cells.

[4] = tested on: PC-3; assay: Proliferation test, PC-3 cells; assay type: cell-based; conditions: Homo sapiens, linear regression of survival percentage
Description: as §1, §2, §3

[5] = tested on: 3T3; assay: Proliferation test, 3T3 fibroblasts; assay type: cell-based; conditions: Mus musculus, NIH3T3; linear regression of survival percentage
Description: as §1, §2, §3

[6] = tested on: HL 60; assay: Proliferation test, HL 60 cells; assay type: cell-based; conditions: Homo sapiens, linear regression of survival percentage
Description: as §1, §2, §3

[7] = tested on: Jurkat T lymphoma cells; assay: Proliferation / viability test, Jurkat T lymphoma cells; assay type: cell-based; conditions: Homo sapiens
Description: as §1, §2, §3

[8] = tested on: U-937; assay: Proliferation test, U-937 cells; assay type: cell-based; conditions: Homo sapiens, linear regression of survival percentage
Description: as §1, §2, §3

[9] = tested on: C6 rat glioma cells; assay: Viability of C6 rat glioma cells (neutral red); assay type: cell-based
Description: as §2
The cells were sub-cultured and the tested compounds were added thereto in increasing concentrations, up to 100 μM.

[10] = tested on: C6 rat glioma cells; assay: DNA fragmentation in C6 rat glioma cells (propidium iodide flow cytometry); assay type: cell-based; conditions: Cisplatin 30 μM; perphenazine 25 and 50 μM; AN 168 25, 50 μM (FIG. 18)
Description: Apoptosis and DNA fragmentation: Fragmentation of cell nuclei was studied by flow cytometric analysis of propidium iodide-stained cells. This analysis was performed using a FACScan (Becton Dickinson, Mountain View, Calif.) equipped with an argon ion laser adjusted to an excitation wavelength of 480 nm and with a Doublet Discrimination Module (DDM). Lysis II (Becton Dickinson) software was used for data acquisition. Apoptotic nuclear changes were evaluated according to the criteria of Nicolletti et al..
The DNA fragmentation was determined by the propidium iodide flow cytometric method described hereinabove.

[11] = tested on: rat myocytes
Description: Toxicity: In vitro toxicity was determined by measuring the effect of the tested compounds (either known neuroleptics or the chemical conjugates of the invention) on primary cultures of neurons and whole brain neuron and glia cells obtained from the brains of neonatal mice. In vitro toxicity of perphenazine and its chemical conjugate AN 168 was also determined with rat myocytes. Acute toxicity in vivo as determined by the LD50 was evaluated on 2 months old ICR mice following the administration of a single intraperitoneal bolus-dose of drug.

[12] = tested on: rats; assay: D-Amphetamine-induced hyperactivity in rats; assay type: in vivo, rat; conditions: i.p., amphetamine 2.5 mg/kg i.p.
Description: D-Amphetamine-induced hyperactivity in rats: The efficacy of the chemical conjugates of the present invention was studied using the D-amphetamine-induced hyperactivity and motility model, which is known as one of the most established animal models for schizophrenia.
Naïve Wistar male rats were placed in individual boxes. In each experiment 4 rats were studied. Perphenazine or equimolar doses of its chemical conjugate AN-168 were administered intraperitoneally (ip) to the rats 30 minutes prior to intraperitoneal administration of amphetamine (2.5 mg/kg), or 90 minutes prior to oral administration of amphetamine (2.5 mg/kg). The animals locomotor activity was assessed using two parameters: climbing attempts of the animal on the barrel walls (as big movements) and head movement of the animal (as small movements). Assessment was recorded every 15 minutes for two hours. Each animal was tested at each time point for 120 seconds.
The climbing behavior of the rats in each group was measured as described hereinabove.

[13] = Stability upon prolonged storage (NMR); assay type: physicochemical; conditions: about 3 months storage; NMR spectroscopy
[14] = tested on: rats; conditions: rat, in vivo
Description: Animals: Young adult male rats (150-230 grams) were purchased from Harlan (Israel). Animals were divided 2-5/cage and housed in controlled conditions in the animal room for a week prior to the experiments. The experiments were conducted with naive animals, in a double blind procedure. In each experiment various treatment groups (about 5-10 animals each) were tested.
Catalepsy in rats: The manifestation of the extrapyramidal adverse effects induced by typical neuroleptics was evaluated by the appearance of stereotypic cataleptic behavior in rats following the neuroleptic treatment. Catalepsy was determined by two methods: (i) by measuring the time it took an animal hanging on a cage wall to move its hind legs and reach a flat surface (the “wall” test); and (ii) rats were placed on a flat surface with their anterior limbs leaning on a flat bar (5.5 cm height) resembling a piano playing position. Catalepsy was determined by the time it took an animal to descend and reach the flat surface (the “piano” test). The maximum time of follow up was 2 minutes and these measurements were performed hourly and individually for each animal. These tests provide an assessment of central dopamine (DA) blocking activity and are acceptable criteria for extrapyramidal symptoms induced by anti-psychotic drugs [10].
A control animals group was treated with the vehicle (lactic acid) only.

[15] = C6 glioma (MDR) cells, 24 hours (FIG. 14)

NCCCC(=O)OCCN1CCN(CCCN2c3ccccc3Sc3ccc(Cl)cc32)CC1 [AN-168, Perphenazine 4-aminobutyrate Trihydrochloride]
time course of catalepsy ([1]; oral, 3.5-28 mg/kg AN 168 vs equimolar perphenazine, 4-6 hours (FIG. 8a)): consistent reduction in the cataleptic behavior at all concentrations
total catalepsy ([1]; oral, 5, 10, 20 mg/kg perphenazine, 7, 14, 28 mg/kg AN-168, 4-6 hours (FIGS. 9a, 9b)): consistently lower than that induced by perphenazine
time course of catalepsy, experiments conducted 3 months later ([1]; oral, 14 and 28 mg/kg AN 168, 4-6 hours (FIG. 8b)): higher catalepsy was induces as compared with the proceeding experiments
catalepsy: percentage of animals reaching the target within 2 minutes ([2]; adult male mice, 1.5 mg/kg perphenazine or equimolar dose (FIG. 7a)): substantially lower disability
catalepsy: time it took the animals to reach the target ([2]; young female mice, 2.5 mg/kg perphenazine or equimolar dose, 2 and 3 hours after treatment (FIG. 7b)): much faster than the animals treated with perphenazine alone
IC50 [3]: 23 ± 16 µM
IC50 [4]: 45.5 µM
IC50 [5]: 25 µM
IC50 [6]: 15.1 µM
IC50 ([7]; alamar blue method (FIG. 15), read-out: IC50, Jurkat T lymphoma cells viability): 19 µM
IC50 ([7]; linear regression of survival percentage, read-out: IC50, JURKAT): 11.3 µM
IC50 [8]: 14.2 µM
anti-proliferative activity in C6 glioma cells [9, 15]: high anti-proliferative activity
concentration causing substantial cell death [9, 15]: about 20 μM
IC50 ([9]; Rattus norvegicus, Glioma cell, 24 hours treatment, neutral red, up to 100 μM (FIG. 14)): 24.2 µM
DNA fragmentation [10]: induced a dramatically increase in DNA fragmentation
decrease in cells viability [11]: did not cause any decrease in cells viability at all concentrations
D-amphetamine-induced climbing behavior ([12]; AN-168 0.5 or 1.5 mg/kg, two hours (FIGS. 22, 23)): completely antagonized the climbing behavior induced by amphetamine even at low doses
D-amphetamine-induced head movements and other small body movement ([12]; two hours (FIGS. 24, 25)): inferior to that of perphenazine
stability upon prolonged storage [13]: slow decomposition, probably due to hydrolysis, occurred
time course of catalepsy ([14]; male, ip): no catalepsy through the entire 7 hours period
time course of catalepsy, conjugate versus mixture ([14]; male, ip, 120 min): abolished after 120 minutes
average of total catalepsy as percentage of the perphenazine-induced catalepsy [14]: reduced the induced catalepsy to almost a zero value
total catalepsy, conjugate versus mixture ([14]; ip): very low catalepsy
induced catalepsy, SAR studies ([14]; ip, 5 mg/kg): almost maximal reduction of induced catalepsy
total catalepsy ([14]; ip, 5 mg/kg): did not induce catalepsy at all
total catalepsy ([14]; po): cataleptic symptoms were almost abolished
